The supplement of paper PMC10307832

What was measured:
Experiment in all cases: relative viability (nuclei count vs DMSO), 5 days (fraction); higher = more cells survive
[1] = compound: CCOC1=CC=CC=C1N=NC2=C(NN(C2=O)C3=NC(=CS3)C4=CC=CC=C4)C [BAM7] + C[C@@H](Oc1cc(-c2cnn(C3CCNCC3)c2)cnc1N)c1c(Cl)ccc(F)c1Cl [Crizotinib] (partner 1 µM)
Outline: (§1)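 Values are medians from duplicate plates. Each reflects relative viability, defined as the nuclei count of treated wells over that of vehicle wells. Lung cancer cell lines in 1536-well plates were pin-tool dosed one day after seeding with one drug alone or with a fixed anchor-drug dose plus five library-drug doses (not always all listed) in √10 steps, then fixed, stained and imaged at 4× after 5 days.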

[2] = compound: CCn1c(-c2nonc2N)nc2c(C#CC(C)(C)O)ncc(OC[C@H]3CCCNC3)c21 + CC(C)C[C@H](NC(=O)[C@H](Cc1ccccc1)NC(=O)c1cnccn1)B(O)O [Bortezomib] (partner 0.002 µM)
Outline: as §1

[3] = compound: CCn1c(-c2nonc2N)nc2c(C#CC(C)(C)O)ncc(OC[C@H]3CCCNC3)c21 + O=C(CCCCCCC(=O)Nc1ccccc1)NO [Vorinostat] (partner 1 µM)
Outline: as §1

[4] = compound: CCOC1=CC=CC=C1N=NC2=C(NN(C2=O)C3=NC(=CS3)C4=CC=CC=C4)C [BAM7] + CC(=O)c1c(C)c2cnc(Nc3ccc(N4CCNCC4)cn3)nc2n(C2CCCC2)c1=O [Palbociclib] (partner 0.5 µM)
Outline: as §1

Cell Line | relative viability ([1]; first compound 0.5 µM) | relative viability ([1]; first compound 5 µM) | relative viability ([1]; first compound 15.81 µM) | relative viability ([1]; first compound 50 µM) | relative viability ([2]; first compound 0.01 µM) | relative viability ([2]; first compound 0.03162 µM) | relative viability ([2]; first compound 0.1 µM) | relative viability ([2]; first compound 0.3162 µM) | relative viability ([2]; first compound 1 µM) | relative viability ([3]; first compound 0.01 µM) | relative viability ([3]; first compound 0.1 µM) | relative viability ([3]; first compound 0.3162 µM) | relative viability ([3]; first compound 1 µM) | relative viability ([4]; first compound 0.5 µM) | relative viability ([4]; first compound 5 µM) | relative viability ([4]; first compound 15.81 µM) | relative viability ([4]; first compound 50 µM) | relative viability ([3]; first compound 0.03162 µM)
PC-3 [JPC-3] | 0.913 | 0.942 | 0.784 | 0.827 | 0.82 | 0.852 | 0.796 | 0.781 | 0.808 | 0.553 | 0.73 | 0.76 | 0.751 | 0.49 | 0.533 | 0.462 | 0.531 | 
PC-14 | 1.07 | 0.99 | 0.805 | 0.859 | 0.966 | 0.84 | 0.956 | 0.813 | 0.852 | 0.68 | 0.722 | 0.556 | 0.461 | 0.592 | 0.479 | 0.335 | 0.42 | 0.742
RERF-LC-KJ | 0.834 | 0.786 | 0.78 | 0.793 | 0.997 | 1.11 | 1.06 | 0.974 | 1.2 | 0.665 | 0.684 | 0.574 | 0.628 | 0.953 | 0.876 | 0.609 | 0.63 | 0.595
SK-LU-1 | 0.785 | 1.05 | 0.903 | 0.866 | 1.08 | 1.08 | 0.707 | 0.992 | 1.22 | 0.767 | 0.78 | 0.677 | 0.767 | 0.399 | 0.405 | 0.43 | 0.453 | 0.781
SW 1573 | 0.974 | 0.962 | 0.778 | 0.8 | 0.993 | 0.946 | 0.864 | 0.908 | 0.646 | 0.374 | 0.451 | 0.367 | 0.499 | 0.433 | 0.396 | 0.356 | 0.391 | 0.82
